From ChEMBL document CHEMBL5465560, “Selectivity Literature for EUbOPEN Chemogenomic Library” (2024)

Legend:
[1] = biological target: Mitogen-activated protein kinase kinase kinase kinase 5 (Homo sapiens) (UniProt Q9Y4K4); experiment: Selectivity interaction (Ambit KINOMEscan and KiNATiv profiling in Jurkat cells) EUB0000090b MAP4K5; assay type: cell-based; details: at 1 µM
[2] = biological target: Mitogen-activated protein kinase 4 (Homo sapiens) (UniProt P31152); experiment: Selectivity interaction (KinomeScan (DiscoverX)) EUB0001079a MAPK4; details: at 1 µM
Sequence of Mitogen-activated protein kinase 4 (Homo sapiens) (P31152 whole entry): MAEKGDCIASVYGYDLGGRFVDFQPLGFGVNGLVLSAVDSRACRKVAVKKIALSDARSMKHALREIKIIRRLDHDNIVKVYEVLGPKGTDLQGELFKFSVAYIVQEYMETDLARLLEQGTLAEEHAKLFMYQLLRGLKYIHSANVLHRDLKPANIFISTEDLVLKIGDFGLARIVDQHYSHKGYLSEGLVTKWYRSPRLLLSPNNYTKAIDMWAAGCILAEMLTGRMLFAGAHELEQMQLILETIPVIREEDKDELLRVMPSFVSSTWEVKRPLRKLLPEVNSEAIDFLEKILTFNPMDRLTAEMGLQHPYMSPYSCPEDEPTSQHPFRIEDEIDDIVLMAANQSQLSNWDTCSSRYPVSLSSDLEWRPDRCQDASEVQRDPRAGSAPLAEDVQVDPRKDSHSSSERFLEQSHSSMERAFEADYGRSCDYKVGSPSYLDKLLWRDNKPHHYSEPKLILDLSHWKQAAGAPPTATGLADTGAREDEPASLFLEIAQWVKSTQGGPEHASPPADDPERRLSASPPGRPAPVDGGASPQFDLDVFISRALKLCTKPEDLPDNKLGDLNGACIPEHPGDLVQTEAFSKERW

[3] = biological target: T1, Testis-specific serine/threonine-protein kinase 3 (Homo sapiens) (UniProt Q96PN8); experiment: Selectivity interaction (SelectScreen profiling (Invitrogen)) EUB0000607a TSSK3; details: at 2 µM
T1 sequence (whole entry): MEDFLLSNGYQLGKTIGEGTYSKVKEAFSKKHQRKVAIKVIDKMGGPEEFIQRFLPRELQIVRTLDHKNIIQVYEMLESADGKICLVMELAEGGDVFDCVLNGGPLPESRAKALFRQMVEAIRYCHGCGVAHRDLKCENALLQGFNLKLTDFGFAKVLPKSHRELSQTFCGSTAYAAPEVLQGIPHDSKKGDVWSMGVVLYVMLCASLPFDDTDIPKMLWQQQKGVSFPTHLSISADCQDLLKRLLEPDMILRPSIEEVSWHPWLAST

[4] = biological target: Non-receptor tyrosine-protein kinase TYK2 (Homo sapiens, UniProt P29597); experiment: Selectivity interaction (KinomeScan (DiscoverX)) EUB0000607a TYK2; details: at 10 µM
Sequence of Non-receptor tyrosine-protein kinase TYK2 (P29597 whole entry): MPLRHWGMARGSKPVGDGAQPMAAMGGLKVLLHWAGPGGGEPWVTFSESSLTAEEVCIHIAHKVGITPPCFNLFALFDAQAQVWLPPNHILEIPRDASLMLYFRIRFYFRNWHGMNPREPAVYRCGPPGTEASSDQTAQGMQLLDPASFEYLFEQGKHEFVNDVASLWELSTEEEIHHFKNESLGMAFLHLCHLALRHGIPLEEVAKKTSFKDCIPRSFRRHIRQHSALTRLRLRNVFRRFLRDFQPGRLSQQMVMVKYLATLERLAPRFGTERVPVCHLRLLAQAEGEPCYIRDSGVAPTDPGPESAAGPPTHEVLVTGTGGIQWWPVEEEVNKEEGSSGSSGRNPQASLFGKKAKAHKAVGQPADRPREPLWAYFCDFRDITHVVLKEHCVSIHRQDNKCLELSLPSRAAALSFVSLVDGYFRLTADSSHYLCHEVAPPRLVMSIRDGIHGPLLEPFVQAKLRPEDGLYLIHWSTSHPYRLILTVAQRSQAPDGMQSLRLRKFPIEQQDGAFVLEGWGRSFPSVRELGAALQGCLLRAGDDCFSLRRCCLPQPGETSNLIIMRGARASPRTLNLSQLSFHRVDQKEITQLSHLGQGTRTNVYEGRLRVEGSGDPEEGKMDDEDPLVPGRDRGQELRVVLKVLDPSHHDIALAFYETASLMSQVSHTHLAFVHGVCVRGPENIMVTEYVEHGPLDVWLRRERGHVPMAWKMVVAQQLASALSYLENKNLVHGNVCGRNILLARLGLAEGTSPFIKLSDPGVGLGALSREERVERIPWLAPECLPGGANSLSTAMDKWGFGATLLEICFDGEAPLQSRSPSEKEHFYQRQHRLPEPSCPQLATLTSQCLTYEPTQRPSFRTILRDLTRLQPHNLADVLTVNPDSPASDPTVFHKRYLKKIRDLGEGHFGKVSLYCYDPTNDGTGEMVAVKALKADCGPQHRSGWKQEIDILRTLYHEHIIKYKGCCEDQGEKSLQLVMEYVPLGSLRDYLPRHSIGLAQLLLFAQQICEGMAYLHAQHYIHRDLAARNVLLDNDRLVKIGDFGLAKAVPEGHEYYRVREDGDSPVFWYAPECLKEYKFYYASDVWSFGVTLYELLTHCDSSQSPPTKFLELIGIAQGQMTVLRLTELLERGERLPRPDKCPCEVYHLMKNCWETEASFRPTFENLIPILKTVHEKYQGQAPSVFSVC

[5] = biological target: T2, Mitogen-activated protein kinase kinase kinase 7 (Homo sapiens) (UniProt O43318); experiment: Selectivity interaction (ActivX KiNativ screen (ex vivo kinase selectivity in human PBMCs)) EUB0001619a MAP3K7; assay type: cell-based; details: PBMC, at 1 µM
T2 sequence (whole entry): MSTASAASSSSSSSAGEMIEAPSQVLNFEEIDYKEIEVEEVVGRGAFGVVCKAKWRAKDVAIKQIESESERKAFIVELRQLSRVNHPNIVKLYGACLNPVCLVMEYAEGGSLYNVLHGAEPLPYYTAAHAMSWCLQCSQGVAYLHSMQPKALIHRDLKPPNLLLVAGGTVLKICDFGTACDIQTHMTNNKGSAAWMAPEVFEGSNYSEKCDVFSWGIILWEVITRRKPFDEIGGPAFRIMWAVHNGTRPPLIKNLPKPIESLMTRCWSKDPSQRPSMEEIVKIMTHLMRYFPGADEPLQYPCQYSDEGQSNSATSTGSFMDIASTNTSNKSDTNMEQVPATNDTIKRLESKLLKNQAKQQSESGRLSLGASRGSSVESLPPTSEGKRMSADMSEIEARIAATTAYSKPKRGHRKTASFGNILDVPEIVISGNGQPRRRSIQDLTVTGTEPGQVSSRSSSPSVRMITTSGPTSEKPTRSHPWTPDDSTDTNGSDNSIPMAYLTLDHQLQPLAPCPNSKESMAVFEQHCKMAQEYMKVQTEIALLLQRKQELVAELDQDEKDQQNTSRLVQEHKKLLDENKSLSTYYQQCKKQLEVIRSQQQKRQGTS

[6] = biological target: Tyrosine-protein kinase Fer (Homo sapiens) (UniProt P16591); experiment: Selectivity interaction (KinomeScan (DiscoverX)) EUB0001619a FER; details: at 1 µM
[7] = biological target: T3, Phosphatidylinositol 5-phosphate 4-kinase type-2 alpha (Homo sapiens) (UniProt P48426); experiment: Selectivity interaction (ActivX KiNativ screen (ex vivo kinase selectivity in human PBMCs)) EUB0001619a PIP4K2A; assay type: cell-based; details: PBMC, at 1 µM
T3 sequence (whole entry): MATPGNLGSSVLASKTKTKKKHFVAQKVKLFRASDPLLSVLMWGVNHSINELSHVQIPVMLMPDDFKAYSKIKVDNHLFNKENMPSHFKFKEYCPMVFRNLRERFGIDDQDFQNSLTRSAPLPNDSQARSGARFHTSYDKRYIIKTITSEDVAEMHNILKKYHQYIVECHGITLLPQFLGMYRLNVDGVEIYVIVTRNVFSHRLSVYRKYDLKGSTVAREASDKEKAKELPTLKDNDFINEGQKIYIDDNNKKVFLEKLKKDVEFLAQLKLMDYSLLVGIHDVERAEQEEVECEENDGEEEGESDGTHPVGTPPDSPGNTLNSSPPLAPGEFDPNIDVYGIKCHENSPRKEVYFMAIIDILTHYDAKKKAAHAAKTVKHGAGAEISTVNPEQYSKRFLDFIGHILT

[8] = biological target: T4, Beta-adrenergic receptor kinase 1 (Homo sapiens) (UniProt P25098); experiment: Selectivity interaction (ActivX KiNativ screen (ex vivo kinase selectivity in human PBMCs)) EUB0001619a ADRBK1; assay type: cell-based; details: PBMC, at 1 µM
T4 sequence (whole entry): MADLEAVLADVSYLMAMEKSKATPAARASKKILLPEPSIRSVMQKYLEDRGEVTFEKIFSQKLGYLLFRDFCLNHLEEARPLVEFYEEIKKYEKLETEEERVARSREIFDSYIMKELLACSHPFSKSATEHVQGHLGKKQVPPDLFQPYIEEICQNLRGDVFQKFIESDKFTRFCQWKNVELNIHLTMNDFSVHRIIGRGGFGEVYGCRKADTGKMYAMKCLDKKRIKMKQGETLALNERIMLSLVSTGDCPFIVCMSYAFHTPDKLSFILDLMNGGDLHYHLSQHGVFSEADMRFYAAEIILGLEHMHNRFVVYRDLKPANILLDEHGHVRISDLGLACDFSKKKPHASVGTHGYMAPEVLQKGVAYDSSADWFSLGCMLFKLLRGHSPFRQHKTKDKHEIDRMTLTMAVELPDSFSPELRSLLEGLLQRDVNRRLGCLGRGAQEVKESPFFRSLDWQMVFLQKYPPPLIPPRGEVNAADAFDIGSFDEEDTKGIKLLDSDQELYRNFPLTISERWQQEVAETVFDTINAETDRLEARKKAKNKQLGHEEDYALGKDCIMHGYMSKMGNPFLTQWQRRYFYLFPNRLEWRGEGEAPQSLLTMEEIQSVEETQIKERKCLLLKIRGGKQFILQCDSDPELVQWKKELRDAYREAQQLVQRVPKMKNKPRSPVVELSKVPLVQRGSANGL

Insulin receptor = Insulin receptor (Homo sapiens, UniProt P06213); experiment: Selectivity interaction (KinomeScan (DiscoverX)) EUB0000229b INSR; details: at 10 µM
Sequence of Insulin receptor (P06213 28-758 limits assumed): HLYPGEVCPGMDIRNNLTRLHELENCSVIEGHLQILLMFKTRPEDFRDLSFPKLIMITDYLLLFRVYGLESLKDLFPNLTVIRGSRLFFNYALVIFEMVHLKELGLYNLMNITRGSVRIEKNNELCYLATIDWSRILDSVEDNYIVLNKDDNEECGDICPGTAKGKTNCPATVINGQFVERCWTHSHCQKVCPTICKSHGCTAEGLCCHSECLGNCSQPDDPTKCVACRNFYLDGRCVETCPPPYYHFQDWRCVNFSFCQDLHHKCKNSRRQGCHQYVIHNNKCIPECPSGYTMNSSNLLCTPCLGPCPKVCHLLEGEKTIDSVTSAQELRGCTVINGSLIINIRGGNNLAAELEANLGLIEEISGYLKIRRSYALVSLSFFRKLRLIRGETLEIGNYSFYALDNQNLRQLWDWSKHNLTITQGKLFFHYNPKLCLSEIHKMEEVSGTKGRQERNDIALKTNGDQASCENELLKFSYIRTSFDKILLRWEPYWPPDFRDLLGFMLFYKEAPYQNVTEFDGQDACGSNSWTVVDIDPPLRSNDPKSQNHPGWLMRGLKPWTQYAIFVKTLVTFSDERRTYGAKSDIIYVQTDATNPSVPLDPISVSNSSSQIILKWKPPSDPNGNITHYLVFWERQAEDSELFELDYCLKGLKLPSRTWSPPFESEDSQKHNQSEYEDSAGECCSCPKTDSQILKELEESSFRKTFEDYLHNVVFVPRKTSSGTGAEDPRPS
Sequence of Insulin receptor (P06213 763-1382 limits assumed): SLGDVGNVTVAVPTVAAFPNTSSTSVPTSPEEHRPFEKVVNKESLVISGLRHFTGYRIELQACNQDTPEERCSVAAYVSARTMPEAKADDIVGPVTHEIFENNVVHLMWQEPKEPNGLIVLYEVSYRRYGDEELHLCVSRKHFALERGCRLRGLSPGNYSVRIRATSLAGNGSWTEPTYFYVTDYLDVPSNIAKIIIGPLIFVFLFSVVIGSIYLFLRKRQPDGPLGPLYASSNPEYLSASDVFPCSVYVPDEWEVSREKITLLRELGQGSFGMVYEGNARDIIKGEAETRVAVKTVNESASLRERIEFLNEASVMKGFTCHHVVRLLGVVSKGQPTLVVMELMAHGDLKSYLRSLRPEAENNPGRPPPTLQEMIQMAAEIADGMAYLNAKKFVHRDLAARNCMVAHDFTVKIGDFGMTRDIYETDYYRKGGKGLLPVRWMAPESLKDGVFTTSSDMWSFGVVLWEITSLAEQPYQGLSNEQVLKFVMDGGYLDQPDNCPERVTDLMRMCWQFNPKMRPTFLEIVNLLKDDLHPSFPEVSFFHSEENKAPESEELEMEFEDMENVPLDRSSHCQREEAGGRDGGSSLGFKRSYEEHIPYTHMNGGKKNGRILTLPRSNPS

[9] = biological target: Tyrosine-protein kinase Blk (Homo sapiens) (UniProt P51451); experiment: Selectivity interaction (KinomeScan (DiscoverX)) EUB0000092b BLK; details: at 10 µM
Sequence of Tyrosine-protein kinase Blk (Homo sapiens) (P51451 2-505 limits assumed): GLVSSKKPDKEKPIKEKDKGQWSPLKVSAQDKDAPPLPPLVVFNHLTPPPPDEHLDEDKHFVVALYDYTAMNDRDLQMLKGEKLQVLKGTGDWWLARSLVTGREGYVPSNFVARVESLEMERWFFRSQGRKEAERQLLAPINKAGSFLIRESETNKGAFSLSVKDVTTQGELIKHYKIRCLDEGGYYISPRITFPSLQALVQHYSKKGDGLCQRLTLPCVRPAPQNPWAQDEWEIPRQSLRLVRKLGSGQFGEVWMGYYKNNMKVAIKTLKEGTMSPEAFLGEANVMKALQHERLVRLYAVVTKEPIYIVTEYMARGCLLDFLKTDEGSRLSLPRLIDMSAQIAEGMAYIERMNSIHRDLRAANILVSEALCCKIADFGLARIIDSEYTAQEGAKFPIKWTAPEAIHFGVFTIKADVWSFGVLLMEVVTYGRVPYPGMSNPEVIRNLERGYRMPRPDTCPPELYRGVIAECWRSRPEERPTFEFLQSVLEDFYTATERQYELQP

[10] = biological target: Casein kinase I isoform gamma-1 (Homo sapiens) (UniProt Q9HCP0); experiment: Selectivity interaction (Kinase panel (Z-LYTE Assay)) EUB0001632a CSNK1G1; details: at 10 µM
Sequence of Casein kinase I isoform gamma-1 (Homo sapiens) (Q9HCP0 whole entry, looked up, canonical isoform): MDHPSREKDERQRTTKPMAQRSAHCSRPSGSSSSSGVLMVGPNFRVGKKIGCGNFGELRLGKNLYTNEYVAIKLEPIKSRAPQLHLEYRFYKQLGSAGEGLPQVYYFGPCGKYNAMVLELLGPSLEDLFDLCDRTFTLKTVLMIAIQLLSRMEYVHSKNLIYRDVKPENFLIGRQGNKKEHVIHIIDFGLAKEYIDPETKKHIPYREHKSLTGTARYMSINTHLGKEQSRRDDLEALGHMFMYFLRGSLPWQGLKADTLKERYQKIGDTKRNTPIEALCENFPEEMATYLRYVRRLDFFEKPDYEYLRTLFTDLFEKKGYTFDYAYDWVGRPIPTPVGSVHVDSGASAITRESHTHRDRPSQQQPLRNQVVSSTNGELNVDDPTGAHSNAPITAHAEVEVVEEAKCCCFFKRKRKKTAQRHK

Sequence of Mitogen-activated protein kinase kinase kinase kinase 5 (Homo sapiens) (Q9Y4K4 whole entry, looked up): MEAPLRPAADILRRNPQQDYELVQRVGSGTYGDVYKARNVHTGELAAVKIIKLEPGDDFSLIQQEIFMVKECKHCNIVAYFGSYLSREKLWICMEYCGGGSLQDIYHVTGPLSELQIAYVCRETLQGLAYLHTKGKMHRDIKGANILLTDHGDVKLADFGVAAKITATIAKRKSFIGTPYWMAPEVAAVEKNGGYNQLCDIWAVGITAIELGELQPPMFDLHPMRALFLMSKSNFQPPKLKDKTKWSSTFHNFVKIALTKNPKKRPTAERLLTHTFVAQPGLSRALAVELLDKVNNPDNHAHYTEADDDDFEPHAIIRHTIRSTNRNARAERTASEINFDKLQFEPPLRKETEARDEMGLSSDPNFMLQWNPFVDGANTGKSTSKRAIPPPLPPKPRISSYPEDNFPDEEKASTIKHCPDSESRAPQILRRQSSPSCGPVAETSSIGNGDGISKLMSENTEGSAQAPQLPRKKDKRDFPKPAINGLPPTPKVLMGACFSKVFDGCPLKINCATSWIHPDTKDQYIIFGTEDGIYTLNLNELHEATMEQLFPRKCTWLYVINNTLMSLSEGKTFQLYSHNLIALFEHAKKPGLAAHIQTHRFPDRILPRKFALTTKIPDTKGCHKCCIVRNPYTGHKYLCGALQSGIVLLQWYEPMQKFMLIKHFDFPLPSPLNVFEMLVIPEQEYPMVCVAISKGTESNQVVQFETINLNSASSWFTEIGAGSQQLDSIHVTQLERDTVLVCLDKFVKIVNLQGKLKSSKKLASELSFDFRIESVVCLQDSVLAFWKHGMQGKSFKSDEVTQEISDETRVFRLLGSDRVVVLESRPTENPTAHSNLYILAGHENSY

CN(C)C/C=C/C(=O)Nc1ccc(C(=O)N2CCCC(Nc3ncc(Cl)c(-c4c[nH]c5ccccc45)n3)C2)cc1 (stereo unspecified)
% of control [1]: 81%

Nc1cnc(N2CCc3cc(S(=O)(=O)Nc4c(F)cc(Cl)cc4F)cc(N4CCCC4=O)c32)nc1 [TP-020n]
% of control [2]: 100%

CNC(=O)Nc1ccc(-c2nc(N3CC4CCC(C3)O4)c3cnn(C4CCC5(CC4)OCCO5)c3n2)cc1
% of inhibition [3]: 3%
% of control [4]: 100%

N#Cc1cccc(-c2c[nH]c3ncnc(N4CCOCC4)c23)c1
% of inhibition [5]: 21%
% of control [6]: 84%
% of inhibition [7]: 15%
% of inhibition [8]: -5%

COc1cc(N(C)c2ccnc3ccc(C(F)(F)F)cc23)cc(OC)c1OC
% binding (Insulin receptor): 100%

CCC(=O)N1CCN(c2ccc(-n3c(=O)ccc4cnc5ccc(-c6cnc7ccccc7c6)cc5c43)cc2C(F)(F)F)CC1
% of control [9]: 75%

Cn1cc(-n2cnc3c(NCc4nc5cc(Cl)c(Cl)cc5[nH]4)nc(N4CCOCC4)nc32)cn1
% of control [10]: 12.7%
